Measurements published in ChEMBL document CHEMBL3580588, “Inhibitors of the PAR-2 Signaling Pathway May Treat Pain and Inflammation” (ACS Med Chem Lett, 2015).

target: Proteinase-activated receptor 1 (Homo sapiens) (UniProt P25116); experiment: Antagonist activity against PAR1 in human HT29 cells assessed as inhibition of thrombin-induced Ca2+ responses pre-incubated for 30 mins before thrombin stimulation by FLIPR assay
Sequence (P25116 whole entry, looked up): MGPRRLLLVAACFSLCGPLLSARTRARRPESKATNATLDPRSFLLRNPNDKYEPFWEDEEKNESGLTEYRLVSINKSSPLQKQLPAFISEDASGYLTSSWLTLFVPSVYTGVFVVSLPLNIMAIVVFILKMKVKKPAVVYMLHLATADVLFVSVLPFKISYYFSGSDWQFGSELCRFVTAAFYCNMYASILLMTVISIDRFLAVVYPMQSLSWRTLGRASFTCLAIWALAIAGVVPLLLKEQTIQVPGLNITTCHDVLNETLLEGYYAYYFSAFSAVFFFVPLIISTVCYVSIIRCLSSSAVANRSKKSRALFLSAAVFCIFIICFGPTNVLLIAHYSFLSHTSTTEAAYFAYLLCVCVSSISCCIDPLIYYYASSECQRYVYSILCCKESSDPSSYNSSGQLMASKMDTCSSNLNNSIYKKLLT

Row | IC50 | Structure (SMILES)
1 | 5.5 µM | CCOC(=O)[C@H]1CCCN(C(=O)c2cn3nc(-c4ccc(F)cc4)cc(C(F)(F)F)c3n2)[C@@H]1C
2 | > 0.5 µM | CC(C)c1cc(-c2ccc(F)cc2)nn2cc(C(=O)N3CCN(C(=O)Cc4ccsc4)[C@@H](C)C3)nc12
3 | > 50 µM | CC(C)(C)OC(=O)N1CCN(C(=O)c2cn3nc(-c4ccc(F)cc4)cc(C(C)(C)C)c3n2)C(C)(C)C1
